What was measured:
MOLM-13 = experiment: Antiproliferative activity against human MOLM13 cells after 72 hrs by CellTiter-Glo assay; format: functional; settings: MOLM-13, 72 h
NCI-H1975 = experiment: Antiproliferative activity against human NCI-H1975 cells after 72 hrs by CellTiter-Glo assay; format: functional; settings: NCI-H1975, 72 h
[1] = molecular target: Tyrosine-protein kinase JAK1 (Homo sapiens) (UniProt P23458); experiment: Inhibition of TEL-fused JAK1 (unknown origin) expressed in mouse BA/F3 cells after 72 hrs by CellTiter-Glo assay; format: cell-based
Chain of Tyrosine-protein kinase JAK1 (Homo sapiens) (P23458 whole entry, the tested form may be a part): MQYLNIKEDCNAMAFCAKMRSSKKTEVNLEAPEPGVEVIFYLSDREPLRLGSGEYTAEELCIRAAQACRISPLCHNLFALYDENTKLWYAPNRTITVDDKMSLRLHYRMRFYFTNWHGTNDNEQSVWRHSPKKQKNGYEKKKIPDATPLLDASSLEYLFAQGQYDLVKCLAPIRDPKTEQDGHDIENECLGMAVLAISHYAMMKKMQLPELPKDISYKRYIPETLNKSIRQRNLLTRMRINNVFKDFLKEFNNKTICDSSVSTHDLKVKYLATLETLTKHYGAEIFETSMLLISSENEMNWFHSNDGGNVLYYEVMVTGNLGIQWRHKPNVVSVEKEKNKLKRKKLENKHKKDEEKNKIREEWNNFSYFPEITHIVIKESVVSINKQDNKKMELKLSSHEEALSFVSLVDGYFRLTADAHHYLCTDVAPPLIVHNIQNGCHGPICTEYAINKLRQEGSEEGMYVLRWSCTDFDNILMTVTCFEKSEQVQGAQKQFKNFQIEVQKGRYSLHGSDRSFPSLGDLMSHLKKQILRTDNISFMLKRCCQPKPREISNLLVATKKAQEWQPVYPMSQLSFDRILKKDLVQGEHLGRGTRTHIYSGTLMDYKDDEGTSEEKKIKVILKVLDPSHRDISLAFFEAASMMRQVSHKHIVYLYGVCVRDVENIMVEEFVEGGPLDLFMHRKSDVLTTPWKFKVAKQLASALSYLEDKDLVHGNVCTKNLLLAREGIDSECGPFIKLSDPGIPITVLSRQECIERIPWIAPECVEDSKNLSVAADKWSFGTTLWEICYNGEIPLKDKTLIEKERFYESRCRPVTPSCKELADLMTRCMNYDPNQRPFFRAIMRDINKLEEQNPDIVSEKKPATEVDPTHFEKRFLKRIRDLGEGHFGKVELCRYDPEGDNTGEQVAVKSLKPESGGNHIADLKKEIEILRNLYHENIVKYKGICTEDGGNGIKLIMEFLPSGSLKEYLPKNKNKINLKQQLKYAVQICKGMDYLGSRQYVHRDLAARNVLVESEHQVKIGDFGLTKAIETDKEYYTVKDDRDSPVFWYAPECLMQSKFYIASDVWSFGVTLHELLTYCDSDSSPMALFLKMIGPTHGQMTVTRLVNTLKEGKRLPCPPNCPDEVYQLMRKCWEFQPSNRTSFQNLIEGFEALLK

MOLM-14 = experiment: Antiproliferative activity against human MOLM14 cells after 72 hrs by CellTiter-Glo assay; format: functional; settings: MOLM-14, 72 h
HCT-116 = experiment: Antiproliferative activity against human HCT116 cells after 72 hrs by CellTiter-Glo assay; format: functional; settings: HCT-116, 72 h
Rec1 = experiment: Antiproliferative activity against human Rec1 cells after 72 hrs by CellTiter-Glo assay; format: functional; settings: Rec1, 72 h
OCI-AML-3 = experiment: Antiproliferative activity against human OCI-AML3 cells after 72 hrs by CellTiter-Glo assay; format: functional; settings: OCI-AML-3, 72 h
NOMO-1 = experiment: Antiproliferative activity against human NOMO1 cells after 72 hrs by CellTiter-Glo assay; format: functional; settings: NOMO-1, 72 h
[2] = Antiproliferative activity against human PF138 cells after 72 hrs by CellTiter-Glo assay; format: functional
Pfeiffer = experiment: Antiproliferative activity against human Pfeiffer cells after 72 hrs by CellTiter-Glo assay; format: functional
[3] = test system: Epidermal growth factor receptor (Homo sapiens), P00533 [T790M]; experiment: Inhibition of TEL-fused EGFR T790M mutant (unknown origin) expressed in mouse BA/F3 cells after 72 hrs by CellTiter-Glo assay; format: cell-based
Chain of Epidermal growth factor receptor (Homo sapiens), P00533 [T790M] (P00533 whole entry T790M, the tested form may be a part): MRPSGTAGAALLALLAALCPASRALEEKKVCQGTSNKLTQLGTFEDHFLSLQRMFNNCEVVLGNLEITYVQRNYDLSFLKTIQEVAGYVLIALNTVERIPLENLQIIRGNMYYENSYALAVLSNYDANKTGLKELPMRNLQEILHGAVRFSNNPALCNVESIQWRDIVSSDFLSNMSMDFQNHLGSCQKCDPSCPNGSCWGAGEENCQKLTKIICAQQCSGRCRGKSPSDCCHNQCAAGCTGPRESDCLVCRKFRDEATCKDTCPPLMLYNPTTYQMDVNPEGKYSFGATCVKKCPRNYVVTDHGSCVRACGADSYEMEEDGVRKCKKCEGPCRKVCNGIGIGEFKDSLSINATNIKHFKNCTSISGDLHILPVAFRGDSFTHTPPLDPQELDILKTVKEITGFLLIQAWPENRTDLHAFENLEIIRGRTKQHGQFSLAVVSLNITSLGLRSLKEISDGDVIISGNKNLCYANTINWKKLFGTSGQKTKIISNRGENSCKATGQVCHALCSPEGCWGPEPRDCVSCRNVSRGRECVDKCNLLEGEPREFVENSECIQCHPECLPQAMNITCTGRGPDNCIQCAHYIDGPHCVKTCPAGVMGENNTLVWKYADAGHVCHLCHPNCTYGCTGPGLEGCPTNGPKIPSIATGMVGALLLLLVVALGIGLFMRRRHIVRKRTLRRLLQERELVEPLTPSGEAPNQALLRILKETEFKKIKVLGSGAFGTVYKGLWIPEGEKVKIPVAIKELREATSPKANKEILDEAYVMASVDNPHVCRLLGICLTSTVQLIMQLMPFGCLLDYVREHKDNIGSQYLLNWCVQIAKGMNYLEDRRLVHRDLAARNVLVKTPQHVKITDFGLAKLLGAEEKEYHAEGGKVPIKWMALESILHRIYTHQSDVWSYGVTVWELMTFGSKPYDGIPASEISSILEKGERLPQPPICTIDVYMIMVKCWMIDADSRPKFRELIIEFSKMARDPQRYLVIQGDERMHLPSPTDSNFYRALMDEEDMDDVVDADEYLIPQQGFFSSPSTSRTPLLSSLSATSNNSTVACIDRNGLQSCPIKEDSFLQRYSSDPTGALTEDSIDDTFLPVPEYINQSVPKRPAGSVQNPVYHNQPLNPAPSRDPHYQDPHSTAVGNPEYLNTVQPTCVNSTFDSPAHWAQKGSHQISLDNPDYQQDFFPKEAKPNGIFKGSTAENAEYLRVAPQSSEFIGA

JVM-2 = experiment: Antiproliferative activity against human JVM2 cells after 72 hrs by CellTiter-Glo assay; format: functional; settings: JVM-2, 72 h
OCI-AML2 = experiment: Antiproliferative activity against human OCI-AML2 cells after 72 hrs by CellTiter-Glo assay; format: functional; settings: OCI-AML2, 72 h
A-431 = experiment: Antiproliferative activity against human A431 cells after 72 hrs by CellTiter-Glo assay; format: functional; settings: A-431, 72 h
HeLa = experiment: Antiproliferative activity against human HeLa cells after 72 hrs by CellTiter-Glo assay; format: functional
[4] = Antiproliferative activity against human MOLM16 cells after 72 hrs by CellTiter-Glo assay; format: functional; settings: MOLM16, 72 h
[5] = test system: Tyrosine-protein kinase JAK3; experiment: Inhibition of TEL-fused JAK3 (unknown origin) expressed in mouse BA/F3 cells after 72 hrs by CellTiter-Glo assay; settings: Homo sapiens
NAMALVA = experiment: Antiproliferative activity against human NAMALWA cells after 72 hrs by CellTiter-Glo assay; format: functional
[6] = molecular target: Tyrosine-protein kinase JAK2 (Homo sapiens) (UniProt O60674); experiment: Inhibition of TEL-fused JAK2 (unknown origin) expressed in mouse BA/F3 cells after 72 hrs by CellTiter-Glo assay; format: cell-based
Chain of Tyrosine-protein kinase JAK2 (Homo sapiens) (O60674 whole entry, the tested form may be a part): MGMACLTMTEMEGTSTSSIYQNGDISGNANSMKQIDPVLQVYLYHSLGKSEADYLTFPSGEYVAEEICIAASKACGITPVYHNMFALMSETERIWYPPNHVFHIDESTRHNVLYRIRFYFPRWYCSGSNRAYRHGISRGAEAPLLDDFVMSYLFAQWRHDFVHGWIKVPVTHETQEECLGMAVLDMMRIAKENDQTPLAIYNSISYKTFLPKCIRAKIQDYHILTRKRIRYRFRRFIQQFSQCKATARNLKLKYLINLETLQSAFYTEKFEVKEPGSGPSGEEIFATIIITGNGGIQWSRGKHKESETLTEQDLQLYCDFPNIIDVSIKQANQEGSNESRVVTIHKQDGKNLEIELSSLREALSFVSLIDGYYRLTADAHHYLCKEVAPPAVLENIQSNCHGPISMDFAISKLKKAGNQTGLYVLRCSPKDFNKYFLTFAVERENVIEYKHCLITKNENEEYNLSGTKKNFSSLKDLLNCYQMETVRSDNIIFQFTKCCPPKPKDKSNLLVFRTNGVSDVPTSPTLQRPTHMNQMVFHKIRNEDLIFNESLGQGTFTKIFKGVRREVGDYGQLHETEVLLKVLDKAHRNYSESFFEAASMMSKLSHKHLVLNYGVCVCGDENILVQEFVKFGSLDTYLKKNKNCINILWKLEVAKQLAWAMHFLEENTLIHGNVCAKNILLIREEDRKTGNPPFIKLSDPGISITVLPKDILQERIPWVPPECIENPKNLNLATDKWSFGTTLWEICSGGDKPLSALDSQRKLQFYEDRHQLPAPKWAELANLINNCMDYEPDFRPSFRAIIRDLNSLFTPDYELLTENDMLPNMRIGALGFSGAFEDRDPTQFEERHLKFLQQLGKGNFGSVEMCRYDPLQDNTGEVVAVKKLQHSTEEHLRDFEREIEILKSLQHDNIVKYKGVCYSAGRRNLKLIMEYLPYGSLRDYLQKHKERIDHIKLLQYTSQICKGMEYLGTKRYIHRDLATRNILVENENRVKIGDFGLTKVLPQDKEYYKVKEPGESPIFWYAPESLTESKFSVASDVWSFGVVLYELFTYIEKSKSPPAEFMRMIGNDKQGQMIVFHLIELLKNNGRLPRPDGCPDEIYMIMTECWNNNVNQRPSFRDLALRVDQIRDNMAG

[7] = Antiproliferative activity against mouse BA/F3 cells after 72 hrs by CellTiter-Glo assay; format: cell-based, BaF3
NCI-H358 = experiment: Antiproliferative activity against human NCI-H358 cells after 72 hrs by CellTiter-Glo assay; format: functional; settings: NCI-H358, 72 h
U-937 = experiment: Antiproliferative activity against human U937 cells after 72 hrs by CellTiter-Glo assay; format: functional; settings: U-937, 72 h
Z-138 = experiment: Antiproliferative activity against human Z138 cells after 72 hrs by CellTiter-Glo assay; format: functional; settings: Z-138, 72 h
cells [8] = format: functional; settings: Homo sapiens, CLL cell, 72 h
SU-DHL-2 = experiment: Antiproliferative activity against human SUDHL2 cells after 72 hrs by CellTiter-Glo assay; format: functional; settings: SU-DHL-2, 72 h
Ramos = experiment: Antiproliferative activity against human Ramos cells after 72 hrs by CellTiter-Glo assay; format: functional
NCI-H460 = experiment: Antiproliferative activity against human NCI-H460 cells after 72 hrs by CellTiter-Glo assay; format: functional; settings: NCI-H460, 72 h
U2932 = experiment: Antiproliferative activity against human U2932 cells after 72 hrs by CellTiter-Glo assay; format: functional; settings: U2932, 72 h
K562 = experiment: Antiproliferative activity against human K562 cells after 72 hrs by CellTiter-Glo assay; format: functional; settings: K562, 72 h
HL-60 = experiment: Antiproliferative activity against human HL60 cells after 72 hrs by CellTiter-Glo assay; format: functional; settings: HL-60, 72 h
NALM-6 = experiment: Antiproliferative activity against human NALM6 cells after 72 hrs by CellTiter-Glo assay; format: functional; settings: NALM-6, 72 h
DU-145 = experiment: Antiproliferative activity against human DU145 cells after 72 hrs by CellTiter-Glo assay; format: functional; settings: DU-145, 72 h
cells [9] = format: functional; settings: Homo sapiens, CLL cell, 72 h; remark: listed apart in the source
[10] = Antiproliferative activity against human RV1 cells after 72 hrs by CellTiter-Glo assay; format: functional; settings: RV-1, 72 h
LNCaP C4-2 = experiment: Antiproliferative activity against human C4-2 cells after 72 hrs by CellTiter-Glo assay; format: functional; settings: LNCaP C4-2, 72 h
[11] = molecular target: Cytoplasmic tyrosine-protein kinase BMX (Homo sapiens) (UniProt P51813)
Description: Inhibition of TEL-fused BMX (unknown origin) expressed in mouse BA/F3 cells after 72 hrs by CellTiter-Glo assay

[12] = molecular target: Epidermal growth factor receptor (Homo sapiens) (UniProt P00533); experiment: Inhibition of TEL-fused EGFR (unknown origin) expressed in mouse BA/F3 cells after 72 hrs by CellTiter-Glo assay; format: cell-based
[13] = test system: Epidermal growth factor receptor (Homo sapiens), P00533 [L858R,T790M]; experiment: Inhibition of TEL-fused EGFR T790M/L858R mutant (unknown origin) expressed in mouse BA/F3 cells after 72 hrs by CellTiter-Glo assay; format: cell-based
Chain of Epidermal growth factor receptor (Homo sapiens), P00533 [L858R,T790M] (P00533 whole entry T790M/L858R, looked up, the tested form may be a part): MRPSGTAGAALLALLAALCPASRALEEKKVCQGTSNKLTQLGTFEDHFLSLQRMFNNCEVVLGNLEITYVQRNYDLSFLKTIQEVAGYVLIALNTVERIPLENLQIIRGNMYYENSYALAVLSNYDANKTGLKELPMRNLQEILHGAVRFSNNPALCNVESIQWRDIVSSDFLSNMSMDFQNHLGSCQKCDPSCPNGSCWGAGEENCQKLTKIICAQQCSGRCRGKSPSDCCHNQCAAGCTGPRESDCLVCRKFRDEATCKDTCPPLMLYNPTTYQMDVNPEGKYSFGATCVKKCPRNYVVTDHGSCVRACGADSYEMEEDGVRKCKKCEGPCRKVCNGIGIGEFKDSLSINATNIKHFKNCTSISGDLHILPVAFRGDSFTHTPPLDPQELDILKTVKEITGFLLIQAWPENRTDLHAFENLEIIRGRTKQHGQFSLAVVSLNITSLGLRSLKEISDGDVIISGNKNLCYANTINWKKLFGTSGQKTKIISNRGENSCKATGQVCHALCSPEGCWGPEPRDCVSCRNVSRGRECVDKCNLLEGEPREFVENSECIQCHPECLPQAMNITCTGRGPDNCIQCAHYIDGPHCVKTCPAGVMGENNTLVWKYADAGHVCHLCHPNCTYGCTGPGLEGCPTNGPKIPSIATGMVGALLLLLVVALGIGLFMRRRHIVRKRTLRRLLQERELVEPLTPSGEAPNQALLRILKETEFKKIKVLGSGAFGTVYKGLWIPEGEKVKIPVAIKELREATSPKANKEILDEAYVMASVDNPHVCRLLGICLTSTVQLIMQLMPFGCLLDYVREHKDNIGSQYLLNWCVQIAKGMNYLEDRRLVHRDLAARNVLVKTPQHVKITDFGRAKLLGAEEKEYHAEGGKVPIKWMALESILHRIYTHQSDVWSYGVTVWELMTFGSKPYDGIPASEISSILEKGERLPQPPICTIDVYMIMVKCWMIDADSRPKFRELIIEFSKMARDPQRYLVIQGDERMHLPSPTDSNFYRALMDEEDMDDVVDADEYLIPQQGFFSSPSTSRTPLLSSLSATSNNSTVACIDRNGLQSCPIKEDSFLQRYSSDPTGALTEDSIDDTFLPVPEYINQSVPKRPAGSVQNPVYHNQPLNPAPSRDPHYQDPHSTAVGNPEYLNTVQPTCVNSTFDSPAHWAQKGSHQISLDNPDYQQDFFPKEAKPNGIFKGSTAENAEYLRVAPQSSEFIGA

CMK = experiment: Antiproliferative activity against human CMK cells after 72 hrs by CellTiter-Glo assay; format: functional

**Q.** What does the source list for `C=CC(=O)Nc1cc(-n2c(=O)ccc3cnc4ccc(-n5cccn5)cc4c32)ccc1C`?
**A.** GI50 (MOLM-13): 0.59 µM; GI50 (NCI-H1975): 5.57 µM; GI50 [1]: 2.67 µM; GI50 (MOLM-14): 1.5 µM; GI50 (HCT-116): > 10 µM; GI50 (Rec1): 1.6 µM; GI50 (OCI-AML-3): 5.6 µM; GI50 (NOMO-1): 4.9 µM; GI50 [2]: 8.8 µM; GI50 (Pfeiffer): 5.8 µM; GI50 [3]: 0.918 µM; GI50 (JVM-2): 3.4 µM; GI50 (OCI-AML2): 7.8 µM; GI50 (A-431): 5.1 µM; GI50 (HeLa): > 10 µM; GI50 [4]: 1.4 µM; GI50 [5]: 9.67 µM; GI50 (NAMALVA): 4.5 µM; GI50 [6]: 2.1 µM; GI50 at 72 h [7]: > 10 µM; GI50 (NCI-H358): > 10 µM; GI50 (U-937): > 10 µM; GI50 (Z-138): 8.5 µM; GI50 (cells [8]): 2.9 µM; GI50 (SU-DHL-2): > 10 µM; GI50 (Ramos): 3.5 µM; GI50 (NCI-H460): > 10 µM; GI50 (U2932): 7.9 µM; GI50 (K562): > 10 µM; GI50 (HL-60): 3.8 µM; GI50 (NALM-6): 1.17 µM; GI50 (DU-145): > 10 µM; GI50 (cells [9]): 10.3 µM; GI50 [10]: > 10 µM; GI50 (LNCaP C4-2): > 10 µM; GI50 [11]: 0.018 µM; GI50 [12]: 2.66 µM; GI50 [13]: 1.59 µM; GI50 (CMK): 4.3 µM

**Q.** With `CCC(=O)Nc1cc(-n2c(=O)ccc3cnc4ccc(-n5cccn5)cc4c32)ccc1C` as the compound, how does the GI50 (MOLM-13) read?
**A.** The GI50 was greater than 10 µM.

**Q.** And the GI50 (NCI-H1975)?
**A.** Its GI50 is greater than 10 µM.

**Q.** And the GI50 [1]?
**A.** The GI50 was greater than 10 µM.

**Q.** And the GI50 (MOLM-14)?
**A.** Its GI50 is greater than 10 µM.

**Q.** And the GI50 (HCT-116)?
**A.** The GI50 was greater than 10 µM.

**Q.** What about the GI50 (Rec1) of the same compound?
**A.** Its GI50 is greater than 10 µM.

**Q.** What about the GI50 (OCI-AML-3) of the same compound?
**A.** Its GI50 is greater than 10 µM.

**Q.** What about the GI50 (NOMO-1) of the same compound?
**A.** Its GI50 is greater than 10 µM.

**Q.** And the GI50 [2]?
**A.** The GI50 was greater than 10 µM.

**Q.** And the GI50 (Pfeiffer)?
**A.** Its GI50 is greater than 10 µM.

**Q.** What about the GI50 [3] of the same compound?
**A.** The GI50 was greater than 10 µM.

**Q.** And the GI50 (JVM-2)?
**A.** The GI50 was greater than 10 µM.

**Q.** And the GI50 (OCI-AML2)?
**A.** The GI50 was greater than 10 µM.

**Q.** And the GI50 (A-431)?
**A.** Its GI50 is greater than 10 µM.

**Q.** What about the GI50 (HeLa) of the same compound?
**A.** The GI50 was greater than 10 µM.

**Q.** What about the GI50 [4] of the same compound?
**A.** Its GI50 is greater than 10 µM.

**Q.** And the GI50 [5]?
**A.** The GI50 was greater than 10 µM.

**Q.** And the GI50 (NAMALVA)?
**A.** The GI50 was greater than 10 µM.

**Q.** And the GI50 [6]?
**A.** Its GI50 is greater than 10 µM.

**Q.** What about the GI50 at 72 h [7] of the same compound?
**A.** The GI50 at 72 h was greater than 10 µM.

**Q.** What about the GI50 (NCI-H358) of the same compound?
**A.** Its GI50 is greater than 10 µM.

**Q.** What about the GI50 (U-937) of the same compound?
**A.** Its GI50 is greater than 10 µM.

**Q.** And the GI50 (Z-138)?
**A.** The GI50 was greater than 10 µM.

**Q.** And the GI50 (cells [8])?
**A.** The GI50 was greater than 10 µM.

**Q.** And the GI50 (SU-DHL-2)?
**A.** Its GI50 is greater than 10 µM.

**Q.** What about the GI50 (Ramos) of the same compound?
**A.** Its GI50 is greater than 10 µM.

**Q.** And the GI50 (NCI-H460)?
**A.** The GI50 was greater than 10 µM.

**Q.** What about the GI50 (U2932) of the same compound?
**A.** The GI50 was greater than 10 µM.

**Q.** What about the GI50 (K562) of the same compound?
**A.** Its GI50 is greater than 10 µM.

**Q.** What about the GI50 (HL-60) of the same compound?
**A.** Its GI50 is greater than 10 µM.

**Q.** What about the GI50 (NALM-6) of the same compound?
**A.** The GI50 was greater than 10 µM.

**Q.** What about the GI50 (DU-145) of the same compound?
**A.** Its GI50 is greater than 10 µM.

**Q.** And the GI50 (cells [9])?
**A.** Its GI50 is greater than 10 µM.

**Q.** And the GI50 [10]?
**A.** Its GI50 is greater than 10 µM.

**Q.** What about the GI50 (LNCaP C4-2) of the same compound?
**A.** The GI50 was greater than 10 µM.

**Q.** And the GI50 [11]?
**A.** The GI50 was greater than 10 µM.

**Q.** What about the GI50 [12] of the same compound?
**A.** The GI50 was greater than 10 µM.

**Q.** What about the GI50 [13] of the same compound?
**A.** Its GI50 is greater than 10 µM.

**Q.** And the GI50 (CMK)?
**A.** The GI50 was greater than 10 µM.

From ChEMBL document CHEMBL4130348, “Structure-activity relationship investigation for benzonaphthyridinone derivatives as novel potent Bruton's tyrosine kinase (BTK) irreversible inhibitors” (Eur J Med Chem, 2017)
